According to ChEMBL document CHEMBL1153037, “Synthesis and structure-activity relationship studies of cytotoxic anhydrovinblastine amide derivatives” (J Nat Prod, 2009):
Structures can show the parent of a compound that is named as a salt.

Columns and labels:
A549 = assay: Cytotoxicity against human A549 cells by sulforhodamine B assay; assay type: functional, cell-based
HeLa = assay: Cytotoxicity against human HeLa cells by sulforhodamine B assay; assay type: functional, cell-based
CCRF S-180 [1] = assay: Antitumor activity against mouse S180 cells xenografted in Kunming mouse at 10 mg/kg, iv administered on day 1 and 4; assay type: functional; conditions: for inhibition in vivo at 10 mg/kg: Mus musculus
CCRF S-180 [2] = assay: Toxicity against mouse S180 cells xenografted in Kunming mouse at 10 mg/kg, iv administered on day 1 and 4; assay type: functional, organism-based; set-up: dose 10 mg/kg
CCRF S-180 [3] = assay: Antitumor activity against mouse S180 cells xenografted in Kunming mouse at 20 mg/kg, iv administered as single dose on day 1; assay type: functional; conditions: CCRF S-180, 24 h

SMILES	IC50 (A549; Homo sapiens, A549)	IC50 (HeLa)	other results
CCC1=C[C@@H]2CN(CCc3c([nH]c4ccccc34)[C@@](C(=O)OC)(c3cc4c(cc3OC)N(C)[C@H]3[C@@](O)(CNC(=O)c5ccncc5)[C@H](OC(C)=O)[C@]5(CC)C=CCN6CC[C@]43[C@@H]65)C2)C1	27 nM	24 nM	
CCC1=C[C@@H]2CN(C1)Cc1c([nH]c3ccccc13)[C@@](C(=O)OC)(c1cc3c(cc1OC)N(C)[C@H]1[C@@](O)(C(=O)OC)[C@H](OC(C)=O)[C@]4(CC)C=CCN5CC[C@]31[C@@H]54)C2 [VINORELBINE TARTRATE]			inhibition in vivo at 10 mg/kg (CCRF S-180 [1]; CCRF S-180, iv, 24 h): 62.5%
CCC1=C[C@@H]2CN(CCc3c([nH]c4ccccc34)[C@@](C(=O)OC)(c3cc4c(cc3OC)N(C)[C@H]3[C@@](O)(CNC(=O)c5ccccc5Cl)[C@H](OC(C)=O)[C@]5(CC)C=CCN6CC[C@]43[C@@H]65)C2)C1	24 nM	89 nM	
CCC1=C[C@@H]2CN(C1)Cc1c([nH]c3ccccc13)[C@@](C(=O)OC)(c1cc3c(cc1OC)N(C)[C@H]1[C@@](O)(C(=O)OC)[C@H](OC(C)=O)[C@]4(CC)C=CCN5CC[C@]31[C@@H]54)C2 [VINORELBINE]			IC50 (A549; a549): 30 nM; inhibition (INH) (CCRF S-180 [1]): 69.4%
CCC1=C[C@@H]2CN(C1)Cc1c([nH]c3ccccc13)[C@@](C(=O)OC)(c1cc3c(cc1OC)N(C)[C@H]1[C@@](O)(C(=O)OC)[C@H](OC(C)=O)[C@]4(CC)C=CCN5CC[C@]31[C@@H]54)C2			Activity (CCRF S-180 [2]): Not toxic
CCC1=C[C@@H]2CN(CCc3c([nH]c4ccccc34)[C@@](C(=O)OC)(c3cc4c(cc3OC)N(C)[C@H]3[C@@](O)(CNC(=O)C5CC5)[C@H](OC(C)=O)[C@]5(CC)C=CCN6CC[C@]43[C@@H]65)C2)C1	26 nM	35 nM	inhibition in vivo at 10 mg/kg (CCRF S-180 [1]; CCRF S-180, 24 h): 81.3%; inhibition in vivo at 20 mg/kg (CCRF S-180 [3]): 88.8%
CCC1=C[C@@H]2CN(CCc3c([nH]c4ccccc34)[C@@](C(=O)OC)(c3cc4c(cc3OC)N(C)[C@H]3[C@@](O)(CNC(=O)c5ccc([N+](=O)[O-])cc5)[C@H](OC(C)=O)[C@]5(CC)C=CCN6CC[C@]43[C@@H]65)C2)C1	33 nM	23 nM	
CCC1=C[C@@H]2CN(CCc3c([nH]c4ccccc34)[C@@](C(=O)OC)(c3cc4c(cc3OC)N(C)[C@H]3[C@@](O)(CNC(=O)c5cccc(Cl)c5)[C@H](OC(C)=O)[C@]5(CC)C=CCN6CC[C@]43[C@@H]65)C2)C1	26 nM	67 nM	
CCC1=C[C@@H]2CN(CCc3c([nH]c4ccccc34)[C@@](C(=O)OC)(c3cc4c(cc3OC)N(C)[C@H]3[C@@](O)(CNC(=O)c5ccc(OC)cc5)[C@H](OC(C)=O)[C@]5(CC)C=CCN6CC[C@]43[C@@H]65)C2)C1	30 nM	139 nM	
CCCC(=O)NC[C@@]1(O)[C@H](OC(C)=O)[C@]2(CC)C=CCN3CC[C@@]4(c5cc([C@@]6(C(=O)OC)C[C@@H]7C=C(CC)CN(CCc8c6[nH]c6ccccc86)C7)c(OC)cc5N(C)[C@@H]14)[C@@H]32	96 nM	97 nM	
CCC1=C[C@@H]2CN(CCc3c([nH]c4ccccc34)[C@@](C(=O)OC)(c3cc4c(cc3OC)N(C)[C@H]3[C@@](O)(CNC(=O)c5ccccc5OC)[C@H](OC(C)=O)[C@]5(CC)C=CCN6CC[C@]43[C@@H]65)C2)C1	10 nM	21 nM	
CCC1=C[C@@H]2CN(CCc3c([nH]c4ccccc34)[C@@](C(=O)OC)(c3cc4c(cc3OC)N(C)[C@H]3[C@@](O)(CNC(=O)C5CCC5)[C@H](OC(C)=O)[C@]5(CC)C=CCN6CC[C@]43[C@@H]65)C2)C1	34 nM	68 nM	
CCC1=C[C@@H]2CN(CCc3c([nH]c4ccccc34)[C@@](C(=O)OC)(c3cc4c(cc3OC)N(C)[C@H]3[C@@](O)(CNC(=O)CC(C)C)[C@H](OC(C)=O)[C@]5(CC)C=CCN6CC[C@]43[C@@H]65)C2)C1	152 nM	85 nM	
CCC1=C[C@@H]2CN(CCc3c([nH]c4ccccc34)[C@@](C(=O)OC)(c3cc4c(cc3OC)N(C)[C@H]3[C@@](O)(CNC(=O)c5ccc(Cl)cc5)[C@H](OC(C)=O)[C@]5(CC)C=CCN6CC[C@]43[C@@H]65)C2)C1	25 nM	47 nM	
CCC1=C[C@@H]2CN(CCc3c([nH]c4ccccc34)[C@@](C(=O)OC)(c3cc4c(cc3OC)N(C)[C@H]3[C@@](O)(CNC(=O)C(C)(C)C)[C@H](OC(C)=O)[C@]5(CC)C=CCN6CC[C@]43[C@@H]65)C2)C1	95 nM	61 nM	
CCC1=C[C@@H]2CN(CCc3c([nH]c4ccccc34)[C@@](C(=O)OC)(c3cc4c(cc3OC)N(C)[C@H]3[C@@](O)(CNC(=O)C(C)C)[C@H](OC(C)=O)[C@]5(CC)C=CCN6CC[C@]43[C@@H]65)C2)C1	101 nM	132 nM	
CCC(=O)NC[C@@]1(O)[C@H](OC(C)=O)[C@]2(CC)C=CCN3CC[C@@]4(c5cc([C@@]6(C(=O)OC)C[C@@H]7C=C(CC)CN(CCc8c6[nH]c6ccccc86)C7)c(OC)cc5N(C)[C@@H]14)[C@@H]32	43 nM	57 nM	inhibition in vivo at 10 mg/kg (CCRF S-180 [1]; CCRF S-180, 24 h): 84.4%; inhibition in vivo at 20 mg/kg (CCRF S-180 [3]): 90%; Activity (CCRF S-180 [2]): Not toxic
CCC1=C[C@@H]2CN(CCc3c([nH]c4ccccc34)[C@@](C(=O)OC)(c3cc4c(cc3OC)N(C)[C@H]3[C@@](O)(CNC(=O)Cc5ccccc5)[C@H](OC(C)=O)[C@]5(CC)C=CCN6CC[C@]43[C@@H]65)C2)C1	39 nM	78 nM	
CCC1=C[C@@H]2CN(CCc3c([nH]c4ccccc34)[C@@](C(=O)OC)(c3cc4c(cc3OC)N(C)[C@H]3[C@@](O)(CNC(=O)c5ccccc5)[C@H](OC(C)=O)[C@]5(CC)C=CCN6CC[C@]43[C@@H]65)C2)C1	27 nM	26 nM	
CCC1=C[C@@H]2CN(CCc3c([nH]c4ccccc34)[C@@](C(=O)OC)(c3cc4c(cc3OC)N(C)[C@H]3[C@@](O)(CNC(=O)CC(C)(C)C)[C@H](OC(C)=O)[C@]5(CC)C=CCN6CC[C@]43[C@@H]65)C2)C1	115 nM	93 nM	
CCC1=C[C@@H]2CN(CCc3c([nH]c4ccccc34)[C@@](C(=O)OC)(c3cc4c(cc3OC)N(C)[C@H]3[C@@](O)(CNC(=O)c5ccc6c(c5)OCO6)[C@H](OC(C)=O)[C@]5(CC)C=CCN6CC[C@]43[C@@H]65)C2)C1	8 nM	33 nM	inhibition in vivo at 10 mg/kg (CCRF S-180 [1]; CCRF S-180, 24 h): 58.1%; inhibition in vivo at 20 mg/kg (CCRF S-180 [3]): 66.3%; Activity (CCRF S-180 [2]): Not toxic
CCC1=C[C@@H]2CN(CCc3c([nH]c4ccccc34)[C@@](C(=O)OC)(c3cc4c(cc3OC)N(C)[C@H]3[C@@](O)(CNC(=O)c5ccc(F)cc5)[C@H](OC(C)=O)[C@]5(CC)C=CCN6CC[C@]43[C@@H]65)C2)C1	20 nM	25 nM	
CCC1=C[C@@H]2CN(CCc3c([nH]c4ccccc34)[C@@](C(=O)OC)(c3cc4c(cc3OC)N(C)[C@H]3[C@@](O)(CNC(C)=O)[C@H](OC(C)=O)[C@]5(CC)C=CCN6CC[C@]43[C@@H]65)C2)C1	22 nM	444 nM	
